In PMC10440746, “Biosynthesis of 3,6-Dideoxy-heptoses for the Capsular Polysaccharides of Campylobacter jejuni” (Biochemistry, 2023):

What was measured:
C3-dehydratase (HS:5) = test system: T1, C3-dehydratase (HS:5); assay: coupled glutamate dehydrogenase assay, NADPH oxidation at […] nm; assay type: biochemical, Campylobacter; details: pH 7.5, 25 °C; 0.2 mM PLP, 4.0 mM L-glutamate; 50 mM ammonium bicarbonate; apparent
T1 construct: full length, N-terminal 21-residue His6 tag (pET-28a), codon-optimised gene, E. coli BL21(DE3)

C5-epimerase (HS:5) = details: pH 7.5, 25 °C; 50 mM HEPES/KOH; 300 μM NADPH; apparent

Row | Compound | Km (C3-dehydratase (HS:5)) [µM] | Km (C5-epimerase (HS:5)) [µM]
1 | Nc1nc2c(ncn2[C@@H]2O[C@H](COP(=O)(O)OP(=O)(O)O[C@H]3O[C@H](CCO)C(=O)[C@H](O)[C@@H]3O)[C@@H](O)[C@H]2O)c(=O)[nH]1 [compound 5, GDP-6-deoxy-4-keto-α-D-lyxo-heptose] | 840 ± 60 | 
2 | Nc1nc2c(ncn2[C@@H]2O[C@H](COP(=O)(O)OP(=O)(O)O[C@H]3O[C@H](CCO)C(=O)C[C@@H]3O)[C@@H](O)[C@H]2O)c(=O)[nH]1 [compound 8, GDP-3,6-dideoxy-4-keto-α-D-threo-heptose] |  | 480 ± 80
